# How the values were obtained:
# Assay in all cases: relative viability (nuclei count vs DMSO), 5 days (fraction); higher = more cells survive
# [1] = compound: CN(C)C(=N)NC(=N)N [Metformin] + O=C(CCCCCCC(=O)Nc1ccccc1)NO [Vorinostat] (partner 1 µM)
# How it was run: (§1)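 Each reported value is a median over duplicate plates. It expresses relative viability: treated-well nuclei count divided by vehicle-well nuclei count. Lung cancer cell lines in 1536-well plates were dosed by pin tool a day after seeding, alone with one drug or with a fixed anchor-drug dose plus five library-drug doses (not always all listed) in √10 steps, and nuclei were counted after 5 days.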
# [2] = compound: N#CC1(c2ccc(NC(=O)c3cccnc3NCc3ccncc3)cc2)CCCC1 [Apatinib] + CC(=O)Nc1cccc(-n2c(=O)n(C3CC3)c(=O)c3c(Nc4ccc(I)cc4F)n(C)c(=O)c(C)c32)c1 [Trametinib] (partner 0.02 µM)
# How it was run: as §1
# [3] = compound: N#CC1(c2ccc(NC(=O)c3cccnc3NCc3ccncc3)cc2)CCCC1 [Apatinib] + CC1(C)CCC(c2ccc(Cl)cc2)=C(CN2CCN(c3ccc(C(=O)NS(=O)(=O)c4ccc(N[C@H](CCN5CCOCC5)CSc5ccccc5)c(S(=O)(=O)C(F)(F)F)c4)cc3)CC2)C1 [Navitoclax] (partner 0.5 µM)
# How it was run: as §1
# [4] = compound: CN(C)C(=N)NC(=N)N [Metformin] + COc1cc2c(Oc3ccc(NC(=O)C4(C(=O)Nc5ccc(F)cc5)CC4)cc3F)ccnc2cc1OCCCN1CCOCC1 [Foretinib] (partner 0.25 µM)
# How it was run: as §1
Cell Line,relative viability ([1]; first compound 31.62 µM),relative viability ([1]; first compound 100 µM),relative viability ([1]; first compound 316.23 µM),relative viability ([1]; first compound 1000 µM),relative viability ([2]; first compound 0.08 µM),relative viability ([2]; first compound 0.253 µM),relative viability ([2]; first compound 0.8 µM),relative viability ([2]; first compound 2.53 µM),relative viability ([2]; first compound 8 µM),relative viability ([3]; first compound 0.08 µM),relative viability ([3]; first compound 0.253 µM),relative viability ([3]; first compound 0.8 µM),relative viability ([3]; first compound 2.53 µM),relative viability ([3]; first compound 8 µM),relative viability ([4]; first compound 10 µM),relative viability ([4]; first compound 31.62 µM),relative viability ([4]; first compound 100 µM),relative viability ([4]; first compound 316.23 µM),relative viability ([4]; first compound 1000 µM),relative viability ([1]; first compound 10 µM)
HCC-44,1.02,1.09,1.06,1.03,1.08,0.993,1.07,1.09,0.811,0.961,1.05,0.979,0.946,0.892,,,,,,
IA-LM,1.04,1.03,0.901,0.962,,,,,,0.947,0.709,0.633,0.352,0.208,1.18,1.27,1.43,1.11,1.28,1.01
NCI-H661,0.928,0.927,0.818,0.82,0.606,0.594,0.571,0.532,0.463,,,,,,0.809,0.877,0.879,0.834,0.916,0.851
NCI-H1792,,,,,0.433,0.436,0.349,0.342,0.302,0.572,0.596,0.569,0.559,0.592,,,,,,
NCI-H2342,0.868,0.837,0.745,0.853,0.918,0.777,0.916,0.846,0.834,,,,,,0.972,1.15,1.07,1,1.21,
NCI-H1648,0.5,1.07,0.703,0.91,0.466,0.467,0.39,0.537,0.335,,,,,,,,,,,
EBC-1,,,,,,,,,,0.5,0.55,0.46,0.27,0.237,0.0914,0.09,,0.103,0.0951,
ABC-1,0.953,1.1,1.08,0.332,,,,,,,,,,,1.48,1.14,1.05,1.02,0.287,
NCI-H1703,,,,,,,,,,0.996,0.731,0.357,0.188,0.205,0.497,0.504,0.549,0.474,0.496,
NCI-H1563,,,,,,,,,,,,,,,0.99,1.02,1.09,1.01,1.05,
NCI-H1623,,,,,,,,,,,,,,,0.799,0.811,1.02,1.01,0.864,
Calu-6,,,,,,,,,,0.791,0.919,0.751,0.648,0.626,0.809,0.878,0.917,0.795,0.821,
NCI-H1299,,,,,,,,,,1.06,1.05,1.03,1.05,0.937,1.09,1.12,1.14,1.11,1.13,
A549,,,,,,,,,,1.18,1.34,1.22,1.19,1.02,0.867,0.9,0.9,0.853,0.944,
NCI-H522,1.11,0.923,0.99,1.03,0.799,0.77,0.731,0.592,0.68,,,,,,,,,,,1.15
